From patent publication US7144890B2, “Spiro-pentacyclic compounds” (Hoffman-La Roche Inc., priority 2004, dated 2006)

What was measured:
[1] = target: T1, human cannabis CB1 receptor (Homo sapiens, UniProt P21554); assay: Affinity for cannabinoid CB1 receptor, [3H]-CP-55,940 radioligand binding on HEK cell membranes; conditions: affinity for the CB1 receptor
T1 construct: expressed in transfected cells; host or cells: human embryonic kidney (HEK) cells, Semliki Forest Virus system, membrane preparation
Description: The affinity of the compounds of the invention for cannabinoid CB1 receptors was determined using membrane preparations of human embryonic kidney (HEK) cells in which the human cannabis CB1 receptor is transiently transfected using the Semliki Forest Virus system in conjunction with [3H]-CP-55,940 as radioligand. After incubation of a freshly prepared cell membrane preparation with the [3H]-ligand, with or without addition of compounds of the invention, separation of bound and free ligand was performed by filtration over glassfiber filters. Radioactivity on the filter was measured by liquid scintillation counting.

[2] = doses of 5, 10 and 20 mg daily; cited from earlier work

T1 sequence (P21554 whole entry): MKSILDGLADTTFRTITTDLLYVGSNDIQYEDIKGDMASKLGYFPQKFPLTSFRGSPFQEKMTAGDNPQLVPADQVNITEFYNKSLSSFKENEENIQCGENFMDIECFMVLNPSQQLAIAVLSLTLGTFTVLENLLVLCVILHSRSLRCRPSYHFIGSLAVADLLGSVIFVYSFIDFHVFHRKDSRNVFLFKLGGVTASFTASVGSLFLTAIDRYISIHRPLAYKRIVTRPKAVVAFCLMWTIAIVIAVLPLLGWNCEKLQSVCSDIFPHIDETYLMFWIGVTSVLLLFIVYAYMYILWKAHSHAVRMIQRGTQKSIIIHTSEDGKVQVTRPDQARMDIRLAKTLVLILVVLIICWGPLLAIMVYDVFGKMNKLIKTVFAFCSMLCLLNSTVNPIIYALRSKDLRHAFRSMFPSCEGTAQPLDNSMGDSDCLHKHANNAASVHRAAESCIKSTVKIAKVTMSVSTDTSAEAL

| Compound | IC50 [1] [nM] | body weight compared to placebo [2] |
| --- | --- | --- |
| O=C(c1cc2c(cc1F)OC1(O2)c2ccc(Cl)cc2CCc2cc(Cl)ccc21)N1CCOCC1 [Example 1, 4-[(2′,8′-dichloro-6-fluoro-10′,11′-dihydrospiro[1,3-benzodioxole-2,5′-[5H]dibenzo[a,d]cyclohepten]-5-yl)carbonyl]-morpholine] | 13 | – |
| Cc1c(C(=O)NN2CCCCC2)nn(-c2ccc(Cl)cc2Cl)c1-c1ccc(Cl)cc1 [SR 141716] | – | significantly reduced body weight |
| O=C(c1ccc2c(c1)OC1(O2)c2ccc(Cl)cc2CCc2cc(Cl)ccc21)C1CCNCC1 [Example 2, 4-[(2′,8′-dichloro-10′,11′-dihydrospiro[1,3-benzodioxole-2,5′-[5H]dibenzo[a,d]cyclohepten]-5-yl)carbonyl]-piperidine] | 18 | – |
